Measured values from patent US3940413A, “1-Ethyl-imidazoles” (Bayer Aktiengesellschaft, priority 1972, dated 1976).
Values after ≈ are worked out from the molar mass of the structure shown.

Tests used:
Assay in all cases: antimycotic action spectrum in vitro, series dilution test
Assay type in all cases: cell-based
[1] = system: Trichophyton mentagrophytes; conditions: in nutrient medium, Sabourauds' test medium, 28°C, 24 to 96 hours; for MIC: Trichophyton mentagrophytes, read-out: Minimum inhibitory concentration, Trichophyton mentagrophytes
Description: (§1) Determination of the anti-mycotic action spectrum in vitro by the series dilution test.
(§2) The nutrient substrates used were, for dermatophytes and moulds, Sabourauds' test medium, and, for blastomyces and biphase fungi, meat broth-glucose bouillon.
(§3) The incubation temperature was 28°C and the incubation time was 24 to 96 hours.

Penicillium commune = conditions: in nutrient medium, 28°C, 24 to 96 hours; for MIC: Penicillium commune, read-out: Minimum inhibitory concentration, Penicillium commune
Description: as §1, §2, §3

Aspergillus niger = conditions: in nutrient medium, 28°C, 24 to 96 hours; for MIC: Aspergillus niger, read-out: Minimum inhibitory concentration, Aspergillus niger
Description: as §1, §2, §3

Candida albicans = conditions: in nutrient medium, 28°C, 24 to 96 hours; for MIC: Candida albicans, read-out: Minimum inhibitory concentration, Candida albicans
Description: as §1, §2, §3

Row | Compound | MIC [1] [µg/mL] | MIC (Penicillium commune) [µg/mL] | MIC (Aspergillus niger) [µg/mL] | MIC (Candida albicans) [µg/mL] | Minimum inhibitory concentration, Trichophyton mentagrophytes [1] [µg/mL] | Minimum inhibitory concentration, Penicillium commune (Penicillium commune) [µg/mL] | Minimum inhibitory concentration, Aspergillus niger (Aspergillus niger) [µg/mL] | Minimum inhibitory concentration, Candida albicans (Candida albicans) [µg/mL]
1 | CC(C)(C)C(=O)C(Cn1ccnc1)Oc1ccc(Cl)cc1 (centres unmarked) [Example 4, 2-(4-chlorophenoxy)-1-imidazolyl-(1)-4,4-dimethyl-pentan-3-one] |  |  |  |  | 4 (≈ 13 µM) | 32 (≈ 104 µM) | 4 (≈ 13 µM) | 4 (≈ 13 µM)
2 | CC(C)(C)C(=O)C(Cn1ccnc1)Oc1ccccc1Cl (centres unmarked) [Example 8, 2-(2-chlorophenoxy)-1-imidazolyl-(1)-4,4-dimethyl-pentan-3-one] | 8 (≈ 26.1 µM) | 16 (≈ 52.2 µM) | 4 (≈ 13 µM) | 4 (≈ 13 µM) |  |  |  | 
3 | CC(C)(C)C(=O)C(Cn1ccnc1)Oc1ccc(F)cc1 (centres unmarked) [Example 7, 2-(4-fluorophenoxy)-1-imidazolyl-(1)-4,4-dimethyl-pentan-3-one] | 8 (≈ 27.6 µM) | 32 (≈ 110 µM) | 4 (≈ 13.8 µM) | 4 (≈ 13.8 µM) |  |  |  | 
4 | CC(C)(C)C(=O)C(Cn1ccnc1)Oc1ccc(Br)cc1 (centres unmarked) [Example 6, 2-(4-bromophenoxy)-1-imidazolyl-(1)-4,4-dimethyl-pentan-3-one] | 8 (≈ 22.8 µM) | 16 (≈ 45.6 µM) | 4 (≈ 11.4 µM) | 4 (≈ 11.4 µM) |  |  |  | 
5 | CC(C)(C)C(=O)C(Cn1ccnc1)Oc1ccccc1-c1ccccc1 (centres unmarked) [Example 13, 2-(2-phenylphenoxy)-1-imidazolyl-(1)-4,4-dimethyl-pentan-3-one] | 8 (≈ 23 µM) | 16 (≈ 45.9 µM) | 8 (≈ 23 µM) | 4 (≈ 11.5 µM) |  |  |  | 

Continued, in another order:

Row | MIC [1] [µg/mL] | MIC (Penicillium commune) [µg/mL] | MIC (Aspergillus niger) [µg/mL] | MIC (Candida albicans) [µg/mL] | Compound | Minimum inhibitory concentration, Trichophyton mentagrophytes [1] [µg/mL] | Minimum inhibitory concentration, Penicillium commune (Penicillium commune) [µg/mL] | Minimum inhibitory concentration, Aspergillus niger (Aspergillus niger) [µg/mL] | Minimum inhibitory concentration, Candida albicans (Candida albicans) [µg/mL]
6 | < 1 | 16 (≈ 46.9 µM) | 4 (≈ 11.7 µM) | 4 (≈ 11.7 µM) | CC(C)(C)C(=O)C(Cn1ccnc1)Oc1ccc(Cl)cc1Cl (centres unmarked) [Example 5, 2-(2,4-dichlorophenoxy)-1-imidazolyl-(1)-4,4-dimethyl-pentan-3-one] |  |  |  | 
7 | < 1 | 8 (≈ 23 µM) | 8 (≈ 23 µM) | 4 (≈ 11.5 µM) | CC(C)(C)C(=O)C(Cn1ccnc1)Oc1ccc(-c2ccccc2)cc1 (centres unmarked) [Example 14, 2-(4-phenylphenoxy)-1-imidazolyl-(1)-4,4-dimethyl-pentan-3-one] |  |  |  | 
8 | 4 (≈ 10.6 µM) | 16 (≈ 42.6 µM) | 4 (≈ 10.6 µM) | 4 (≈ 10.6 µM) | CC(C)(C)C(=O)C(Cn1ccnc1)Oc1cc(Cl)c(Cl)cc1Cl (centres unmarked) [Example 10, 2-(2,4,5-trichlorophenoxy)-1-imidazolyl-(1)-4,4-dimethyl-pentan-3-one] |  |  |  | 
9 | < 1 | 8 (≈ 24.9 µM) | 8 (≈ 24.9 µM) | 4 (≈ 12.5 µM) | Cc1cc(Cl)ccc1OC(Cn1ccnc1)C(=O)C(C)(C)C (centres unmarked) [Example 12] |  |  |  | 
10 | 4 (≈ 13 µM) | 16 (≈ 52.2 µM) | 4 (≈ 13 µM) | 4 (≈ 13 µM) | CC(C)(C)C(=O)C(Cn1ccnc1)Oc1cccc(Cl)c1 (centres unmarked) [Example 9, 2-(3-chlorophenoxy)-1-imidazolyl-(1)-4,4-dimethyl-pentan-3-one] |  |  |  | 
11 | 4 (≈ 13 µM) | 32 (≈ 104 µM) | 8 (≈ 26.1 µM) | 4 (≈ 13 µM) | CC(C)(C)C(=O)C(Cn1ccnc1)Oc1ccc(Cl)cc1 (centres unmarked) [Example 1, 2-(4-chlorophenoxy)-1-imidazolyl-(1)-4,4-dimethyl-pentan-3-one] |  |  |  | 
